Reference: patent US4898940A (priority 1989, dated 1990)
≈ marks a conversion by molar mass, not a printed value.

Tests used:
Piricularia oryzae = assay type: cell-based; conditions: Piricularia oryzae D 91; Sabouraud dextrose agar
Escherichia coli = experiment: MIC, serial agar dilution (nutrient agar); assay type: cell-based; conditions: Escherichia coli NIHJ
Description: (§1) Nutrient agar (Eiken) was used for bacteria and Sabouraud dextrose agar (Difco) for fungi. The inoculum size was adjusted to 10^4 CFU/ml for bacteria and 10^5 -10^7 CFU/ml for fungi.

Streptococcus faecalis = experiment: MIC, serial agar dilution (nutrient agar); assay type: cell-based; conditions: Streptococcus faecalis A9612
Description: as §1

Serratia marcescens = experiment: MIC, serial agar dilution (nutrient agar); assay type: cell-based; conditions: Serratia marcescens A20222
Description: as §1

Pseudomonas aeruginosa = experiment: MIC, serial agar dilution (nutrient agar); assay type: cell-based; conditions: Pseudomonas aeruginosa A9930
Description: as §1

Proteus mirabilis = experiment: MIC, serial agar dilution (nutrient agar); assay type: cell-based; conditions: Proteus mirabilis A9554
Description: as §1

[1] = tested on: Staphylococcus epidermidis; experiment: MIC, serial agar dilution (nutrient agar); assay type: cell-based
Description: as §1

Proteus vulgaris = experiment: MIC, serial agar dilution (nutrient agar); assay type: cell-based; conditions: Proteus vulgaris A9436
Description: as §1

Klebsiella pneumoniae = experiment: MIC, serial agar dilution (nutrient agar); assay type: cell-based; conditions: Klebsiella pneumoniae D-11
Description: as §1

Enterobacter cloacae = experiment: MIC, serial agar dilution (nutrient agar); assay type: cell-based; conditions: Enterobacter cloacae A9659
Description: as §1

Micrococcus luteus = experiment: MIC, serial agar dilution (nutrient agar); assay type: cell-based; conditions: Micrococcus luteus PCI-1001
Description: as §1

Staphylococcus aureus = experiment: MIC, serial agar dilution (nutrient agar); assay type: cell-based
Description: as §1

Bacillus subtilis = experiment: MIC, serial agar dilution (nutrient agar); assay type: cell-based; conditions: Bacillus subtilis PCI-219
Description: as §1

Morganella morganii = experiment: MIC, serial agar dilution (nutrient agar); assay type: cell-based; conditions: Morganella morganii A9553
Description: as §1

Aspergillus flavus = experiment: MIC, serial agar dilution (Sabouraud dextrose agar); assay type: cell-based; conditions: Aspergillus flavus FA 21436
Description: as §1

Blastomyces dermaditis = experiment: as above; assay type: cell-based; conditions: Blastomyces dermaditis IFO 8144
Description: as §1

[2] = tested on: Trichophyton mentagrophytes; experiment: as above; assay type: cell-based
Description: as §1

Candida albicans = experiment: as above; assay type: cell-based
Description: as §1

Fusarium moniliforme = experiment: as above; assay type: cell-based; conditions: Fusarium moniliforme A 2284
Description: as §1

Mucor spinosus = experiment: as above; assay type: cell-based; conditions: Mucor spinosus IFO 5317
Description: as §1

Sporothrix schenckii = experiment: as above; assay type: cell-based; conditions: Sporothrix schenckii IFO 8158
Description: as §1

Aspergillus fumigatus = experiment: as above; assay type: cell-based
Description: as §1

Cryptococcus neoformans = experiment: as above; assay type: cell-based
Description: as §1

Petriellidium boydii = experiment: as above; assay type: cell-based; conditions: Petriellidium boydii IFO 8073
Description: as §1

Solubility in solvents = assay type: physicochemical
[3] = tested on: pathogenic fungi such as Candida albicans, Cryptococcus neoformans, Aspergillus fumigatus, Trichlophyton mentagrophytes and Mucor spinosus; experiment: In vitro antifungal activity; assay type: cell-based; conditions: clinically important pathogenic fungi
Description: as §1

[4] = tested on: Lymphocytic leukemia P388; experiment: Antitumor activity against P388 leukemia in mice; assay type: in vivo, CDF1 and BDF1 mice; conditions: for T/C % of MST: P388 leukemia; for antitumor activity against P388 leukemia (in words): ip
Method: (§2) Lymphocytic leukemia P388 (CDF1 and BDF1 mice) and lymphoid leukemia L1210 (BDF1 mice) were inoculated by intraperitoneal injection of 0.8 ml diluted ascitic fluid containing 10^6 and 10^5 cells per mouse, respectively. Melanotic melanoma B16 (BDF1 mice) were implanted 0.5 ml of a 10% tumor brei intraperitoneally. Test materials were dissolved in 0.9% saline containing 10% dimethyl sulfoxide and graded doses of them were administered to mice intraperitoneally 24 hours after tumor implantation. Either olivomycin (NSC 38270) or mitomycin C was comparatively tested as a reference compound in the experiments.
Values for percentage ratios of 125 and above indicate significant antitumor effect.

[5] = tested on: gram-positive and gram-negative bacteria; experiment: In vitro antibacterial activity; assay type: cell-based
Description: as §1

[6] = Acute toxicity, single intraperitoneal administration; conditions: male ddY mice
Melanotic melanoma B16 = experiment: Antitumor activity against B16 melanoma in mice; assay type: in vivo, BDF1 mice; conditions: B16 melanoma, BDF1 mice
Method: as §2

lymphoid leukemia L1210 = experiment: Antitumor activity against L1210 leukemia in mice; assay type: in vivo, BDF1 mice; conditions: L1210 leukemia, BDF1 mice
Method: as §2

[7] = Staphylococcus epidermidis A22152
[8] = Staphylococcus epidermidis D153
[9] = Trichophyton mentagrophytes #4329
[10] = Trichophyton mentagrophytes D 155
[11] = Cryptococcus neoformans IAM 4514
[12] = 0.3 mg/kg/day ip, schedule 1 (once daily on days 1, 4 and 7)
[13] = 3 mg/kg/day ip, schedule 1 (once daily on days 1, 4 and 7)
[14] = treatment schedule 1 (once daily on days 1, 4 and 7)
[15] = 0.031 mg/kg/day ip, schedule 2 (once daily on days 1 through 9)
[16] = 0.063 mg/kg/day ip, schedule 2 (once daily on days 1 through 9)
[17] = 0.13 mg/kg/day ip, schedule 2 (once daily on days 1 through 9)
[18] = 0.25 mg/kg/day ip, schedule 2 (once daily on days 1 through 9)
[19] = 0.5 mg/kg/day ip, schedule 2 (once daily on days 1 through 9)
[20] = 1 mg/kg/day ip, schedule 2 (once daily on days 1 through 9)

Compound: CCCCCC=CCCC=CC=CC(=O)NC(C(=O)NC1CC(O)CCNC(=O)C=CC(C)NC1=O)C(C)O (stereo not drawn) [BU-2867T B]
- MIC (Piricularia oryzae): > 50 µg/mL
- MIC (Escherichia coli): > 50 µg/mL
- MIC (Streptococcus faecalis): > 50 µg/mL
- MIC (Serratia marcescens): > 50 µg/mL
- MIC (Pseudomonas aeruginosa): > 50 µg/mL
- MIC (Proteus mirabilis): > 50 µg/mL
- MIC [1, 7]: 50 µg/mL (≈ 91.5 µM)
- MIC [1, 8]: 6.3 µg/mL (≈ 11.5 µM)
- MIC (Proteus vulgaris): > 50 µg/mL
- MIC (Klebsiella pneumoniae): > 50 µg/mL
- MIC (Enterobacter cloacae): > 50 µg/mL
- MIC (Micrococcus luteus): 50 µg/mL (≈ 91.5 µM)
- MIC (Staphylococcus aureus; Staphyloccus aureus Bx-1633): 50 µg/mL (≈ 91.5 µM)
- MIC (Staphylococcus aureus; Staphylococcus aureus 209P): 25 µg/mL (≈ 45.7 µM)
- MIC (Staphylococcus aureus; Staphylococcus aureus Smith): 3.1 µg/mL (≈ 5.67 µM)
- MIC (Bacillus subtilis): 50 µg/mL (≈ 91.5 µM)
- MIC (Morganella morganii): > 50 µg/mL
- MIC (Aspergillus flavus): 25 µg/mL (≈ 45.7 µM)
- MIC (Blastomyces dermaditis): 50 µg/mL (≈ 91.5 µM)
- MIC [2, 9]: 12.5 µg/mL (≈ 22.9 µM)
- MIC [2, 10]: 12.5 µg/mL (≈ 22.9 µM)
- MIC (Candida albicans; Candida albicans A 9540): 1.6 µg/mL (≈ 2.93 µM)
- MIC (Candida albicans; Candida albicans IAM 4888): 3.1 µg/mL (≈ 5.67 µM)
- MIC (Fusarium moniliforme): > 50 µg/mL
- MIC (Mucor spinosus): 0.8 µg/mL (≈ 1.46 µM)
- MIC (Sporothrix schenckii): > 50 µg/mL
- MIC (Aspergillus fumigatus; Aspergillus fumigatus IAM 2034): 3.1 µg/mL (≈ 5.67 µM)
- MIC (Aspergillus fumigatus; Aspergillus fumigatus IAM 2530): 31 µg/mL (≈ 56.7 µM)
- MIC (Cryptococcus neoformans; Cryptococcus neoformans D 49): 25 µg/mL (≈ 45.7 µM)
- MIC (Cryptococcus neoformans; [11]): 25 µg/mL (≈ 45.7 µM)
- MIC (Petriellidium boydii): > 50 µg/mL
- solubility in chloroform, acetonitrile and ethyl acetate (Solubility in solvents): slightly soluble
- solubility in methanol, ethanol, n-butanol and dimethyl sulfoxide (Solubility in solvents): readily soluble
- solubility in n-hexane and water (Solubility in solvents): practically insoluble
- antifungal activity (in words) [3]: somewhat less active than component C
- T/C % of MST [4, 12]: 120%
- T/C % of MST ([4]; 1 mg/kg/day ip, schedule 1 (once daily on days 1, 4 and 7)): 140%
- T/C % of MST [4, 13]: 165%
- antitumor activity against P388 leukemia (in words) [4, 14]: showed antitumor activity
- activity against some gram-positive bacteria (in words) [5]: moderate activity

Compound: CCCCCCCCCC=CC=CC(=O)NC(C(=O)NC1CC(O)CCNC(=O)C=CC(C)NC1=O)C(C)O (stereo not drawn) [BU-2867T C]
- MIC (Piricularia oryzae): > 50 µg/mL
- MIC (Escherichia coli): > 50 µg/mL
- MIC (Streptococcus faecalis): > 50 µg/mL
- MIC (Serratia marcescens): > 50 µg/mL
- MIC (Pseudomonas aeruginosa): > 50 µg/mL
- MIC (Proteus mirabilis): > 50 µg/mL
- MIC [1, 7]: > 50 µg/mL
- MIC [1, 8]: > 50 µg/mL
- MIC (Proteus vulgaris): > 50 µg/mL
- MIC (Klebsiella pneumoniae): > 50 µg/mL
- MIC (Enterobacter cloacae): > 50 µg/mL
- MIC (Micrococcus luteus): > 50 µg/mL
- MIC (Staphylococcus aureus; Staphyloccus aureus Bx-1633): > 50 µg/mL
- MIC (Staphylococcus aureus; Staphylococcus aureus 209P): > 50 µg/mL
- MIC (Staphylococcus aureus; Staphylococcus aureus Smith): > 50 µg/mL
- MIC (Bacillus subtilis): > 50 µg/mL
- MIC (Morganella morganii): > 50 µg/mL
- MIC (Aspergillus flavus): 50 µg/mL (≈ 91.1 µM)
- MIC (Blastomyces dermaditis): > 50 µg/mL
- MIC [2, 9]: 6.3 µg/mL (≈ 11.5 µM)
- MIC [2, 10]: 1.6 µg/mL (≈ 2.92 µM)
- MIC (Candida albicans; Candida albicans A 9540): 0.8 µg/mL (≈ 1.46 µM)
- MIC (Candida albicans; Candida albicans IAM 4888): 1.6 µg/mL (≈ 2.92 µM)
- MIC (Fusarium moniliforme): > 50 µg/mL
- MIC (Mucor spinosus): 0.2 µg/mL (≈ 0.364 µM)
- MIC (Sporothrix schenckii): > 50 µg/mL
- MIC (Aspergillus fumigatus; Aspergillus fumigatus IAM 2034): 0.8 µg/mL (≈ 1.46 µM)
- MIC (Aspergillus fumigatus; Aspergillus fumigatus IAM 2530): 0.8 µg/mL (≈ 1.46 µM)
- MIC (Cryptococcus neoformans; Cryptococcus neoformans D 49): 3.1 µg/mL (≈ 5.65 µM)
- MIC (Cryptococcus neoformans; [11]): 3.1 µg/mL (≈ 5.65 µM)
- MIC (Petriellidium boydii): 50 µg/mL (≈ 91.1 µM)
- solubility in chloroform, acetonitrile and ethyl acetate (Solubility in solvents): slightly soluble
- solubility in methanol, ethanol, n-butanol and dimethyl sulfoxide (Solubility in solvents): readily soluble
- solubility in n-hexane and water (Solubility in solvents): practically insoluble
- antifungal activity (in words) [3]: potent antifungal activity
- T/C % of MST [4, 15]: 100%
- T/C % of MST [4, 16]: 123%
- T/C % of MST [4, 17]: 153%
- T/C % of MST [4, 18]: 159%
- T/C % of MST [4, 12]: 130%
- T/C % of MST [4, 19]: 175%
- T/C % of MST [4, 20]: 189%
- T/C % of MST ([4]; 2 mg/kg/day ip, schedule 2 (once daily on days 1 through 9)): 234%
- T/C % of MST [4, 13]: 155%
- antitumor activity against P388 leukemia (in words) [4, 14]: showed antitumor activity
- antitumor activity against P388 leukemia (in words) ([4]; treatment schedule 2 (once daily on days 1 through 9)): highly active
- growth inhibition of gram-positive and gram-negative bacteria (in words) ([5]; at 50 mcg/ml): did not inhibit the growth
- LD50 [6]: 25 mg/kg

Compound: CO[C@@]12[C@H](COC(N)=O)C3=C(C(=O)C(C)=C(N)C3=O)N1C[C@@H]1N[C@@H]12 [Mitomycin C, reference compound]
- T/C % of MST (Melanotic melanoma B16; 0.13 mg/kg/day ip): 131%
- T/C % of MST (Melanotic melanoma B16; 0.25 mg/kg/day ip): 141%
- T/C % of MST (Melanotic melanoma B16; 0.5 mg/kg/day ip): 163%
- T/C % of MST (Melanotic melanoma B16; 1 mg/kg/day ip): 181%
- T/C % of MST (Melanotic melanoma B16; 2 mg/kg/day ip): 63%
- T/C % of MST (lymphoid leukemia L1210; 0.063 mg/kg/day ip): 106%
- T/C % of MST (lymphoid leukemia L1210; 0.13 mg/kg/day ip): 129%
- T/C % of MST (lymphoid leukemia L1210; 0.25 mg/kg/day ip): 129%
- T/C % of MST (lymphoid leukemia L1210; 0.5 mg/kg/day ip): 141%
- T/C % of MST (lymphoid leukemia L1210; 1 mg/kg/day ip): 140%
- T/C % of MST [4, 15]: 115%
- T/C % of MST [4, 16]: 130%
- T/C % of MST [4, 17]: 150%
- T/C % of MST [4, 18]: 170%
- T/C % of MST [4, 19]: 240%
- T/C % of MST [4, 20]: 290%

Compound: Olivomycin A [reference compound]
- T/C % of MST [4, 12]: 100%
